In ChEMBL document CHEMBL1148800, “Novel 2,7-dialkyl-substituted 5(S)-amino-4(S)-hydroxy-8-phenyl-octanecarboxamide transition state peptidomimetics are potent and orally active inhibitors of human renin” (J Med Chem, 2007):

Tests used:
Callithrix jacchus [1] = organism: Callithrix jacchus; assay: animal or person; conditions: Plasma, po, 6 h, read-out: Inhibition
Description: Inhibition of plasma renin activity in sodium depleted marmoset at 10 mg/kg, po after 6 hrs

Callithrix jacchus [2] = organism: Callithrix jacchus; assay: animal or person; conditions: Plasma, po, 6 h, read-out: Inhibition; remark: listed apart in the source
Description: Inhibition of plasma renin activity in sodium depleted marmoset at 3 mg/kg, po after 6 hrs

SMILES | inhibition in vivo at 10 mg/kg (Callithrix jacchus [1]) | inhibition in vivo at 3 mg/kg (Callithrix jacchus [2])
COCCCOc1cc(C[C@@H](C[C@H](N)[C@@H](O)C[C@@H](C)C(=O)NCC(C)(C)N2CCOCC2)C(C)C)ccc1OC | 88% | 
COCCCOc1cc(C[C@@H](C[C@H](N)[C@@H](O)C[C@@H](C)C(=O)NCCN2CCSCC2)C(C)C)ccc1OC |  | 28%
COCCCOc1cc(C[C@@H](C[C@H](N)[C@@H](O)C[C@@H](C)C(=O)NCCCC(N)=O)C(C)C)ccc1OC |  | 95%
